From ChEMBL document CHEMBL5729483, “Compositions and methods for treating infections” (2022)

Target: Bifunctional dihydrofolate reductase-thymidylate synthase (Plasmodium falciparum K1, UniProt P13922)
Assay: TBD: TBD
Design: species or system Isolate K1 / Thailand

Bifunctional dihydrofolate reductase-thymidylate synthase, sequence (P13922 whole entry): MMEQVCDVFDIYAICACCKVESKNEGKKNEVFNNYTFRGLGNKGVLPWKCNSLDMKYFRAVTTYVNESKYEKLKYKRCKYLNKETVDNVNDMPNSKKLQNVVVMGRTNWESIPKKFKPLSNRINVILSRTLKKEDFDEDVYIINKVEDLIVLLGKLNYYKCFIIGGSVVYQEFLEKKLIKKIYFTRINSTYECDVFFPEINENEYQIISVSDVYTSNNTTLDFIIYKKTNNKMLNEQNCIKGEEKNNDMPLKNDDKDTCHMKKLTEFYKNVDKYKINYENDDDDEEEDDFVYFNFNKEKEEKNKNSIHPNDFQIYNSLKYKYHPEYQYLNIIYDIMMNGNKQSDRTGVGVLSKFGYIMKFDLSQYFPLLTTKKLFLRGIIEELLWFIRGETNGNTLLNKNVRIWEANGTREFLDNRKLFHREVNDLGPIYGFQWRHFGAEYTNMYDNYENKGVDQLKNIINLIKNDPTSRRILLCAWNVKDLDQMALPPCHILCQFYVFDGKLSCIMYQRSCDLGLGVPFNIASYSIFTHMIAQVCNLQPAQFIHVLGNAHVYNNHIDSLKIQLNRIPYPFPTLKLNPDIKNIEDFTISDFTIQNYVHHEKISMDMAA

**Q.** Which IC50 does the source give for `Nc1ncc(N2CCN(c3cccc(C4CCOCC4)c3)CC2)c(N)n1` here?
**A.** 1.1 nM
